Molecular target: HCV NS3/4A wild type (wt) (Hepatitis C virus genotype 1b (isolate BK) (HCV), UniProt P26663)
Assay: Mass spectrometric analysis (MALDI-TOF) of intact protease incubated with test compound
Format: binding
Settings: 10-fold excess of compound
Experimental: Mass spectrometric analysis of HCV wild type or HCV variant C159S in the presence of test compound is performed. 100 pmols of HCV wild type (Bioenza CA) is incubated with test compound for 1 hr and 3 hrs at 10-fold access of test compound to protein. 1 ul aliquots of the samples (total volume of 4.24 ul) are diluted with 10 ul of 0.1% TFA prior to micro C4 ZipTipping directly onto the MALDI target using Sinapinic acid as the desorption matrix (10 mg/mL in 0.1% TFA:Acetonitrile 50:50). Analyses are performed on a Shimadzu Biotech Axima TOF^2 (Shimadzu Instruments) matrix-assisted-laser desorption/ionization Time-of-Flight (MALDI-TOF) mass spectrometer. The same procedure is carried out on 100 pmols of HCV C159S mutant of HCV protease for 3 hrs at 10-fold excess of test compound to protein.
2 ul aliquots of the samples were diluted with 10 ul of 0.1% TFA prior to micro C4 ZipTipping directly onto the MALDI target using Sinapinic acid as the desorption matrix (10 mg/ml in 0.1% TFA:Acetonitrile 50:50). For intact protein mass measurement the instrument was set in linear mode using a pulsed extraction setting of 24,500 and apomyoglobin as the standard to calibrate the instrument.
2 ul aliquots of the samples were diluted with 10 ul of 0.1% TFA prior to micro […] ZipTipping directly onto the MALDI target using Sinapinic acid as the desorption matrix (10 mg/ml in 0.1% TFA:Acetonitrile 20:80). For intact protein mass measurement the instrument was set in linear mode using a pulsed extraction setting of 24,500 and apomyoglobin as the standard to calibrate the instrument.

Row | SMILES | covalent modification of protein (reaction with compound, mass spectrometry) (3 hr incubation) | mass increase of new protein species versus protein with no compound (3 hr incubation) | covalent modification of protein (reaction with compound, mass spectrometry) (1 hr incubation)
1 | C=CC(=O)NC[C@H](NC(=O)[C@@H](NC(=O)c1cnccn1)C1CCCCC1)C(=O)N1C[C@@H]2CCC[C@@H]2[C@H]1C(=O)N[C@@H](CCC)C(=O)C(=O)NC1CC1 [Compound I-11, (1S,3aR,6aS)-2-((S)-3-acrylamido-2-((S)-2-cyclohexyl-2-(pyrazine-2-carboxamido)acetamido)propanoyl)-N—((S)-1-(cyclopropylamino)-1,2-dioxohexan-3-yl)octahydrocyclopenta[c]pyrrole-1-carboxamide] | reacted significantly to produce a new species | approximately 703 Da | 
2 | CCC[C@H](NC(=O)[C@@H]1[C@H]2CCC[C@H]2CN1C(=O)[C@@H](NC(=O)[C@@H](NC(=O)c1cnccn1)C1CCCCC1)C(C)(C)C)C(=O)C(=O)NC1CC1 [telaprevir, reference compound] |  |  | no reaction

— patent publication US9422333B2, “HCV protease inhibitors and uses thereof” (Celgene Avilomics Research, Inc., priority 2008, dated 2016)
